Assay type in all cases: cell-based
In assay [1] the test system is Staphylococcus aureus. As to the kind of experiment: Growth of the isolate in antibiotic mediums, sample 2. As to conditions: microorganism isolated in sample 2 (Staphylococcus aureus); grown in antibiotic medium. The source says:
(§1) Each microorganism was growth in at least two antibiotic mediums, in which the improved method predicted resistance, and at least two antibiotic mediums in which the improved method predicted susceptibility, in order to corroborate the obtained results.

The subject of assay [2] is Klebsiella pneumoniae. Description: Growth of the isolate in antibiotic mediums, sample 1. Conditions: microorganism isolated in sample 1 (Klebsiella pneumoniae); grown in antibiotic medium.
Source text: as §1

Assay [3] relates to Escherichia coli. Description: Growth of the isolate in antibiotic mediums, sample 5. As to conditions: microorganism isolated in sample 5 (Escherichia coli); grown in antibiotic medium.
Source text: as §1

Assay [4] deals with Enterococcus faecalis. Description: Growth of the isolate in antibiotic mediums, sample 3. As to conditions: microorganism isolated in sample 3 (Enterococcus faecalis); grown in antibiotic medium.
Source text: as §1

Assay [5] has as its system Staphylococcus epidermidis. Description: Growth of the isolate in antibiotic mediums, sample 4. As to conditions: microorganism isolated in sample 4 (Staphylococcus epidermidis); grown in antibiotic medium.
Source text: as §1

Turning to `CC[C@H]1OC(=O)[C@H](C)[C@@H](O[C@H]2C[C@@](C)(OC)[C@@H](O)[C@H](C)O2)[C@H](C)[C@@H](O[C@@H]2O[C@H](C)C[C@H](N(C)C)[C@H]2O)[C@](C)(O)C[C@@H](C)CN(C)[C@H](C)[C@@H](O)[C@]1(C)O` [azithromycin], in assay [1], the Result result is recorded as “Resistant”.
As to `NCC[C@H](O)C(=O)N[C@@H]1C[C@H](N)[C@@H](O[C@H]2O[C@H](CN)[C@@H](O)[C@H](O)[C@H]2O)[C@H](O)[C@H]1O[C@H]1O[C@H](CO)[C@@H](O)[C@H](N)[C@H]1O` [Amikacin], the Result result in assay [2], in assay [1], in assay [3], in assay [4] and in assay [5] was “Not resistant” each time.
For `O=C(O)c1cn(C2CC2)c2cc(N3CCNCC3)c(F)cc2c1=O` [Ciprofloxacin], the Result entry in assay [2] is on record as “Resistant”; in assay [1], “Resistant”; in assay [3] it was “Resistant”; in assay [4], “Not resistant”; in assay [5], “Resistant”.
As to `COc1cccc(OC)c1C(=O)N[C@@H]1C(=O)N2[C@@H]1SC(C)(C)[C@@H]2C(=O)O` [Methicillin], the Result entry in assay [2], in assay [1], in assay [3] and in assay [5] was “Not resistant” each time.
On to `CO/N=C(\C(=O)N[C@@H]1C(=O)N2C(C(=O)O)=C(CSc3nc(=O)c(=O)[nH]n3C)CS[C@H]12)c1csc(N)n1` [Ceftriaxone], for which the Result entry in assay [2], in assay [3] and in assay [5] was “Resistant” throughout.

The values above are taken from patent US20250069697A1, “AN IMPROVED METHOD TO IDENTIFY NUCLEIC ACID SEQUENCES WITHIN A SET OF SEQUENCES OBTAINED BY A SEQUENCER AND A SYSTEM” (priority 2022, published 2025).
